Values of other authors, collected in patent US20220378773A1, “METHODS FOR TREATING LEUKEMIA AND USE OF A LEUKEMIC STEM CELL SIGNATURE TO PREDICT CLINICAL SENSITIVITY TO THERAPIES” (CELGENE CORPORATION, priority 2019, published 2022).

Experiments:
[1] = relative humidity increased from about 0% to about 90% RH; cited from earlier work
[2] = system: acute myeloid leukemia (AML) at relapse; settings: administered alone; cited from earlier work

Molecule	water uptake [1]	response in treating AML at relapse [2]
O=C1CCC(N2Cc3cc(CNC(=O)C(F)(F)c4ccc(Cl)cc4)ccc3C2=O)C(=O)N1 (stereo not shown) [Form A, 2-(4-chlorophenyl)-N-((2-(2,6-dioxopiperidin-3-yl)-1-oxoisoindolin-5-yl)methyl)-2,2-difluoroacetamide]	about 1.2 % w/w	
O=C1CCC(N2Cc3cc(CNC(=O)C(F)(F)c4ccc(Cl)cc4)ccc3C2=O)C(=O)N1 (stereo not shown) [Form B, 2-(4-chlorophenyl)-N-((2-(2,6-dioxopiperidin-3-yl)-1-oxoisoindolin-5-yl)methyl)-2,2-difluoroacetamide]	about 1.4 % w/w	
O=C1CCC(N2Cc3cc(CNC(=O)C(F)(F)c4ccc(Cl)cc4)ccc3C2=O)C(=O)N1 (stereo not shown) [Form C, 2-(4-chlorophenyl)-N-((2-(2,6-dioxopiperidin-3-yl)-1-oxoisoindolin-5-yl)methyl)-2,2-difluoroacetamide]	about 0.6 % w/w	
CT-011: anti-PD-1 antibody, a humanized antibody		failed to show response
